Results published in ChEMBL document CHEMBL1201862, “PubChem BioAssay data set” (2004).
Activity calls are given as the source filed them.

Legend:
[1] = molecular target: Peroxisome proliferator-activated receptor gamma/Nuclear receptor coactivator 1 (Homo sapiens, UniProt P37231); experiment: TR-FRET dose response biochemical High Throughput Screening assay for agonists of the steroid receptor coactivator 1 (SRC-1) recruitment by the peroxisome proliferator-activated receptor gamma (PPAR gamma): non-selective agonists. [Related pubchem assays (depositor defined):AID1300, AID1808, AID504735, AID631]; assay type: protein assay
[2] = molecular target: Peroxisome proliferator-activated receptor gamma/Nuclear receptor coactivator 2 (Homo sapiens, UniProt P37231); experiment: (§1) TR-FRET dose response biochemical High Throughput Screening assay for agonists of the steroid receptor coactivator 2 (SRC-2) recruitment by the peroxisome proliferator-activated receptor gamma (PPAR gamma): non-selective agonists. [Related pubchem assays: 1297, 1032 ]; assay type: functional
Peroxisome proliferator-activated receptor gamma/Nuclear receptor coactivator 2, sequence (P37231 whole entry): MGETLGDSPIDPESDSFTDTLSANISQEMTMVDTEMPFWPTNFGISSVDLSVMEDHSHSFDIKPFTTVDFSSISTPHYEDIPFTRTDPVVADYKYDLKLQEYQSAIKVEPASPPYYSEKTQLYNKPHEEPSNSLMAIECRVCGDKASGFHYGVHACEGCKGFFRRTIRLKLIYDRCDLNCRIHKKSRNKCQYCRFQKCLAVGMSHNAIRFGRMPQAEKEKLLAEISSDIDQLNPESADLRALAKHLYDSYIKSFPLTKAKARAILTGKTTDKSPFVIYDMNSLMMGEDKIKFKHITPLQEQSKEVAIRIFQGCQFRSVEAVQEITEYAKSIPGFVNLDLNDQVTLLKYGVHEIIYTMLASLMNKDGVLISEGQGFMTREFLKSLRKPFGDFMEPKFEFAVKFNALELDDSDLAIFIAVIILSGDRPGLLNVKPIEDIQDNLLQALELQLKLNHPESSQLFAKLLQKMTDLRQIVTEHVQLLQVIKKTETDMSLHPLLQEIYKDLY
Peroxisome proliferator-activated receptor gamma/Nuclear receptor coactivator 2, sequence (Q15596 whole entry, further chain): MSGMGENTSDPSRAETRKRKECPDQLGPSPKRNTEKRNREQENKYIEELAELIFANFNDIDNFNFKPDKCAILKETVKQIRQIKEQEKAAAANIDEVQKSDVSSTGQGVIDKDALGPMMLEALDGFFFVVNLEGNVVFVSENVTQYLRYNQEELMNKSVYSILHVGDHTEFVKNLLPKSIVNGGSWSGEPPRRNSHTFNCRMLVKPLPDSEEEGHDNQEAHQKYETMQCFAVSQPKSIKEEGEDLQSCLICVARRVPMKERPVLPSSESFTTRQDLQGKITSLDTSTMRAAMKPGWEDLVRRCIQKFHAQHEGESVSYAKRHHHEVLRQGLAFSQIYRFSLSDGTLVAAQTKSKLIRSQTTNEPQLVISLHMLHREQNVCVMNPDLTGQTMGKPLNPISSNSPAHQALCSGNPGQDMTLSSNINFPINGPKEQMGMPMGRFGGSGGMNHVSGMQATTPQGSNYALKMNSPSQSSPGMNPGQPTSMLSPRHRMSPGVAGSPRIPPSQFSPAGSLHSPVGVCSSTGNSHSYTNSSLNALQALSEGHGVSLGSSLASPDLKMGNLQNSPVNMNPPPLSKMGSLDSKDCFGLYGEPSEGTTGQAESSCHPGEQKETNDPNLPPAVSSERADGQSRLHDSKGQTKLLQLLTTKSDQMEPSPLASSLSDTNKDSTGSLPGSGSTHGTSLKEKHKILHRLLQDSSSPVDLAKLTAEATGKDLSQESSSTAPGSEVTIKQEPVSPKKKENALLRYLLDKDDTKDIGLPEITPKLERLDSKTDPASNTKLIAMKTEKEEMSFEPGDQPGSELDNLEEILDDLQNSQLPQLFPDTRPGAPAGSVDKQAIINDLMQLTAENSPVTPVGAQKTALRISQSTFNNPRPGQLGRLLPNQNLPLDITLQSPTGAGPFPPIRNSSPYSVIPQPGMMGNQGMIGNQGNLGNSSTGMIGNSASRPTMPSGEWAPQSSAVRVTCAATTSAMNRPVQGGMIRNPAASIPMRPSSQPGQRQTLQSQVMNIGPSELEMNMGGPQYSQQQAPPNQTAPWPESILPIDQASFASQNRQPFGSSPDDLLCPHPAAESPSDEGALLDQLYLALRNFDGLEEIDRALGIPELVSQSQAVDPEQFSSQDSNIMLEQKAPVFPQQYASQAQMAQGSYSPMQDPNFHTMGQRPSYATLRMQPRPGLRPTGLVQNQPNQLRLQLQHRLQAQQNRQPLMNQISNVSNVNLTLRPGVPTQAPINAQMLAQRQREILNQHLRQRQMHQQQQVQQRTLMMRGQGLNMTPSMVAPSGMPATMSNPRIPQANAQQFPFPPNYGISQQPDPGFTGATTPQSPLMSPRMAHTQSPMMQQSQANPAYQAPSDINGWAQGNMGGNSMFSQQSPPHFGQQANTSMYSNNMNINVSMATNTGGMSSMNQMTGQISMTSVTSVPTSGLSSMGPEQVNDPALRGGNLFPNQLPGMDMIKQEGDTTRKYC

Leucine aminopeptidase = molecular target: T1, Leucine aminopeptidase (Plasmodium falciparum 3D7, UniProt Q8IL11); experiment: P. falciparum M17LAP inhibitors, primary screen, biochemical, fluorogenic H-Leu-NHMec substrate, 1536-well (AID 1619); assay type: functional
T1 sequence (Q8IL11 whole entry): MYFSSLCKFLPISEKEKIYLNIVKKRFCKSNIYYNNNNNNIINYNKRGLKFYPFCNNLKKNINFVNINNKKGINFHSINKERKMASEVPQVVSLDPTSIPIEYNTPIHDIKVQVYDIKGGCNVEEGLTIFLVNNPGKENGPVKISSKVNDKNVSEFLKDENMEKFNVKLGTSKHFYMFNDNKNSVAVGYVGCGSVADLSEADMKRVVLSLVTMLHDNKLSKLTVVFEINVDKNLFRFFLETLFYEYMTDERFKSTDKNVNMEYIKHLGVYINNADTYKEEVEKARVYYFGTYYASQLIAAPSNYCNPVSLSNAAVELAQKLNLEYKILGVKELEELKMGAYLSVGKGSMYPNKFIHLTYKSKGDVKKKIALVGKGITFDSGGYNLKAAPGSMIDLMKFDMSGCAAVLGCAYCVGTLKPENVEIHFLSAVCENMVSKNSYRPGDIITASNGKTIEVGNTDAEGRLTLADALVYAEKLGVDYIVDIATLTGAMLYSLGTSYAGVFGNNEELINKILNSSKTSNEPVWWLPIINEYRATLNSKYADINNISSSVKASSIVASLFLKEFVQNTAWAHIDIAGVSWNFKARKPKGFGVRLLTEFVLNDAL

[3] = molecular target: Peroxisome proliferator-activated receptor gamma/Nuclear receptor coactivator 3 (Homo sapiens, UniProt P37231); experiment: as §1, with “3 (SRC-3)” for “2 (SRC-2)”, “1301 (Confirmation screen.), 1048 (Primary screen.)]” for “1297, 1032 ]”; assay type: functional
Peroxisome proliferator-activated receptor gamma/Nuclear receptor coactivator 3, sequence (P37231 whole entry): as the sequence (P37231 whole entry) above
Peroxisome proliferator-activated receptor gamma/Nuclear receptor coactivator 3, sequence (Q9Y6Q9 whole entry, further chain): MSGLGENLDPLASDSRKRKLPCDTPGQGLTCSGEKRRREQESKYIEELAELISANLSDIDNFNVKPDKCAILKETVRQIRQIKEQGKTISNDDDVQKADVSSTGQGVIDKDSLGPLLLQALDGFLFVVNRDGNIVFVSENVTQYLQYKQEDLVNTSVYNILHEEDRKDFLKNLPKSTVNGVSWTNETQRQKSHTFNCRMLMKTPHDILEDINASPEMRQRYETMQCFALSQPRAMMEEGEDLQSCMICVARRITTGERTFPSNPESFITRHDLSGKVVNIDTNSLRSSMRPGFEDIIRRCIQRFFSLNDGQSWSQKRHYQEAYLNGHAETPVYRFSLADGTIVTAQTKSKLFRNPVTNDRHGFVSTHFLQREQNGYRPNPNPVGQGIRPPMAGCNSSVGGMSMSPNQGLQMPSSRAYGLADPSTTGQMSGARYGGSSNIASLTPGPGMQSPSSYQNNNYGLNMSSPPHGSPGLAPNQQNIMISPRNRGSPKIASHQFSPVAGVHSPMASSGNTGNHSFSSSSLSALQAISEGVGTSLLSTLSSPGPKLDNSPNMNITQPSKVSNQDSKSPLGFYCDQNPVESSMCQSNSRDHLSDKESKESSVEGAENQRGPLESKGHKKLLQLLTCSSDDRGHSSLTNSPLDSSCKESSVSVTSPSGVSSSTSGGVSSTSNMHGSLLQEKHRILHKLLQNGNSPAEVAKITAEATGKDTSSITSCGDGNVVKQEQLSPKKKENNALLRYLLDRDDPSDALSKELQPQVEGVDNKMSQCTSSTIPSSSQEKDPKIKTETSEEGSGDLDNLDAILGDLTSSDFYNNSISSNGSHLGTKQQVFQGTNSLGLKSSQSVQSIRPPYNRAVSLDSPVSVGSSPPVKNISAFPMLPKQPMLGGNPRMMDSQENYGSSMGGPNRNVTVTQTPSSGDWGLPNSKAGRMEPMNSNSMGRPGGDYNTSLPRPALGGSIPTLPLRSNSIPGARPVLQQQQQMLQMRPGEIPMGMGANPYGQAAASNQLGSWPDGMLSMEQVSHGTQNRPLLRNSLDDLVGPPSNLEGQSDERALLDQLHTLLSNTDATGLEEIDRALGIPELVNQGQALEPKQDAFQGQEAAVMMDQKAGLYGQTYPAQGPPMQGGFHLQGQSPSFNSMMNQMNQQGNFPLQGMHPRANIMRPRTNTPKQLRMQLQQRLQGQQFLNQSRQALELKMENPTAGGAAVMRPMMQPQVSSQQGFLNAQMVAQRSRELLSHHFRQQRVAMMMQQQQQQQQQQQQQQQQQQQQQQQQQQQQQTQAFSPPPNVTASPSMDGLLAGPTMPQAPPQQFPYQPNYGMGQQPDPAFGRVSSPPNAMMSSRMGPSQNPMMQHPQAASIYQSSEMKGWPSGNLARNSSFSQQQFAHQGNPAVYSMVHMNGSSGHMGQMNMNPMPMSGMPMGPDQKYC

[4] = molecular target: T2, Tyrosine-protein phosphatase non-receptor type 7 (Homo sapiens, UniProt P35236); experiment: HePTP (PTPN7) phosphatase inhibitor potency, SAR follow-up, biochemical, set 2 (AID 449736); assay type: functional
T2 sequence (P35236 whole entry): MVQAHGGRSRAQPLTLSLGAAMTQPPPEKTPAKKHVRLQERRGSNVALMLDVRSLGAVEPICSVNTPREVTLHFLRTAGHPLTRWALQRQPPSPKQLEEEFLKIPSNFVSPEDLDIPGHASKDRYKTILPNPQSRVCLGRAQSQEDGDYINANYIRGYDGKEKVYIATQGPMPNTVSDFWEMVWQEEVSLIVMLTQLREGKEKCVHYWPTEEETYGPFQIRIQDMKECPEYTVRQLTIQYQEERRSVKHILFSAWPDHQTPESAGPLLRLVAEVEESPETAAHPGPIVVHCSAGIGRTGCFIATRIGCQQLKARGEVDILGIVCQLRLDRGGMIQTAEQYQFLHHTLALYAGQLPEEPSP

[5] = molecular target: T3, Dual specificity protein phosphatase 6 (Rattus norvegicus, UniProt Q64346); experiment: SAR analysis of inhibitors of MKP-3 - Set 2. [Related pubchem assays (depositor defined):AID1055, AID1661, AID425, AID553, AID566]; assay type: functional
T3 sequence (Q64346 whole entry): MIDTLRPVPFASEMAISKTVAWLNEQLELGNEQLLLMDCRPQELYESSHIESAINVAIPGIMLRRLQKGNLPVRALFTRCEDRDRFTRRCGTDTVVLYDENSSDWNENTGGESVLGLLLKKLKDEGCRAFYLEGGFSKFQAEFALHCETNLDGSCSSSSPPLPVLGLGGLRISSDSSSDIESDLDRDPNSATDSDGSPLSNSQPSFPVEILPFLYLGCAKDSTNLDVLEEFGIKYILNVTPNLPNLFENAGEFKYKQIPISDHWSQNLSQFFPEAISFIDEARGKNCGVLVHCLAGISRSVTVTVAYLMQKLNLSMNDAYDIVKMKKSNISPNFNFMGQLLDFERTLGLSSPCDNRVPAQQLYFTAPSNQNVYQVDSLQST

[6] = molecular target: T4, Dual specificity protein phosphatase 3 (Homo sapiens, UniProt P51452); experiment: SAR VHR1 Fluorescent Assay for In Vitro dose response studies Set 2. [Related pubchem assays (depositor defined):AID1654, AID1661, AID1878]; assay type: functional
T4 sequence (P51452 whole entry): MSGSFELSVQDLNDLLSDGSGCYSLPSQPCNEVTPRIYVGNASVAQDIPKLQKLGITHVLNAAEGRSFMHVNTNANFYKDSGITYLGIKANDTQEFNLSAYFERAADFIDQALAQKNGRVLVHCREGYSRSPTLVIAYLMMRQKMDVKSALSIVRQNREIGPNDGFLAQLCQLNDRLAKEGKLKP

[7] = molecular target: T4, Dual specificity protein phosphatase 3; experiment: SAR VHR1 absorbance Assay for In Vitro dose response studies. [Related pubchem assays (depositor defined):AID1654, AID1661, AID1878, AID1992, AID2004]
[8] = molecular target: T2, Tyrosine-protein phosphatase non-receptor type 7; experiment: SAR analysis of chemical inhibitors of HePTP using a Fluorescent assay - Set 2. [Related pubchem assays (depositor defined):AID1059, AID1077, AID1661, AID2085, AID521]; assay type: functional
[9] = molecular target: T4, Dual specificity protein phosphatase 3; experiment: VHR1 phosphatase inhibitors, biochemical (AID 1878)
[10] = molecular target: T4, Dual specificity protein phosphatase 3; experiment: VHR1 phosphatase inhibitors, primary screen, biochemical, absorbance, uHTS (AID 1654)
[11] = molecular target: T4, Dual specificity protein phosphatase 3; experiment: SAR VHR1 Fluorescent Assay for In Vitro dose response studies. [Related pubchem assays (depositor defined):AID1654, AID1661, AID1878, AID1992, AID2004, AID2070, AID2085]; assay type: functional
[12] = molecular target: T3, Dual specificity protein phosphatase 6; experiment: MKP-3 phosphatase inhibitors, primary screen, biochemical, rat enzyme, in vitro (AID 425)
[13] = molecular target: T2, Tyrosine-protein phosphatase non-receptor type 7; experiment: redox-dependent HePTP inhibition, mechanism study, biochemical, fluorescence (AID 2068); assay type: functional
[14] = molecular target: T3, Dual specificity protein phosphatase 6; assay type: functional

Compound | EC50 [1] | EC50 [2] | IC50 (Leucine aminopeptidase) | EC50 [3] | IC50 [4] | IC50 [5] | IC50 [6] | IC50 [7] | IC50 [8] | IC50 [9] | IC50 [10] | IC50 [11] | IC50 [12] | IC50 [13] | IC50 [14]
CCc1nnc(NS(=O)(=O)c2ccc(N/C=C\C(=O)c3cccc4ccccc34)cc2)s1 | > 79.4 µM (inactive) | > 79.4 µM (not active) | 10.1 µM (active) | > 8.82 µM (not active) | – | – | – | – | – | – | – | – | – | – | –
NS(=O)(=O)c1ccc(NC(=S)NC2CCCCC2)cc1 | – | – | – | – | > 100 µM (inactive) | > 100 µM (inactive) | 0.143 µM (active) | 0.704 µM (active) | 1.27 µM (active) | 3.49 µM (active) | 2.15 µM (active) | > 99 µM (inactive) | > 158 µM (not active) | 0.025 µM (active) | > 99 µM (inactive)
